molecular target: skeletal myofibrils (myosin ATPase activity); assay: Skeletal Myofibril ATPase Assay; format: biochemical; conditions: PK-LDH coupled, absorbance at 340 nm
Method: Overview: Myosin ATPase activity is assessed by using a coupled reaction system, in which ADP generated by the myosin ATPase function is coupled to the disappearance of NADH through the pyruvate kinase/lactate dehydrogenase (PK-LDH) system. Myosin ATPase activity produces ADP, which is used as a substrate for PK to produce pyruvate and regenerate ATP. The pyruvate is then used as a substrate by LDH to oxidize NADH to NAD+. The rate of the reaction is monitored through the time-dependent disappearance of NADH using absorbance at 340 nm. Inhibition of ATPase activity by the assayed compounds is indicated by a reduced rate of NADH loss, relative to vehicle-treated controls, over the experimental time window. To assess the selectivity of the assayed compounds for skeletal myofibrils, the compounds are counter-screened in cardiac myofibrils.
Materials: The following stock solutions and reagents were used in the Skeletal Myofibril ATPase Assay:
Stock Solutions of pCa buffer. Combine PIPES, CaCl2, and EGTA solutions with 70 mL of water. Adjust pH to 7.0 and bring final volume to 100 mL.
Skeletal Myofibril ATPase Assay Procedure: BSA, ATP, NADH, PEP, and DTT solutions were thawed at room temperature, then transferred to ice. Pellet-frozen myofibrils (approximately twice the required volume) were transferred into a sufficiently large tube and capped. Myofibrils were thawed by rolling in a water bath for approximately 15 min at room temperature and cooled on ice. Buffers A and B were prepared by adjusting volumes as necessary for required number of wells and stored on ice. 0.5 μL of the compounds to be assayed were added into wells of a 384-well plate. Buffers A and B were mixed by inversion immediately prior to use, then 25 μL of each was dispensed using a Multidrop dispenser (Buffer A first, then Buffer B). The absorbance within the wells was measured at 340 nm, using a kinetic protocol in which the wells are read every 1.5-2 min for 1 h. The reaction rate was qualitatively assessed by subtracting the minimum absorbance value from the maximum value for each well, using either the SoftMax Pro plate reader software or a spreadsheet program such as Excel. Using GraphPad Prism 8.0, the data was normalized, with 100% activity defined as the absorbance change in the 1% DMSO vehicle wells and 0% assigned to no change in absorbance over the course of the experiment. The normalized data were fit to a variable-slope four-parameter logistic model, constraining the bottom to be 0 or greater. Compounds of Table 1 to 4 were tested and results of the assay appear in Table 5 herein. A=IC50 is less than or equal to 10 μM; B=IC50 is greater than 10 μM and less than 100 μM; C=IC50 is greater than 100 μM; […].

| IC50 [µM] | SMILES |
| --- | --- |
| < 10 | NC(=O)c1cc(Cn2nc(-c3cnc(OCC(F)(F)F)nc3)ccc2=O)on1 [Compound 32, 5-((6-oxo-3-(2-(2,2,2-trifluoroethoxy)pyrimidin-5-yl)pyridazin-1(6H)-yl)methyl)isoxazole-3-carboxamide] |
| < 10 | CC(=O)c1cc(Cn2nc(-c3cnc(OCC(F)(F)F)nc3)ccc2=O)on1 [Compound 33, 2-((3-acetylisoxazol-5-yl)methyl)-6-(2-(2,2,2-trifluoroethoxy)pyrimidin-5-yl)pyridazin-3(2H)-one] |
| < 10 | Cc1cnoc1Cn1nc(-c2cnc(OCC(F)(F)F)nc2)ccc1=O [Compound 34, 2-((4-methylisoxazol-5-yl)methyl)-6-(2-(2,2,2-trifluoroethoxy)pyrimidin-5-yl)pyridazin-3(2H)-one] |
| < 10 | CCOC(=O)c1cc(Cn2nc(-c3cnc(OCC(F)(F)F)nc3)ccc2=O)on1 [Compound 37, ethyl 5-((6-oxo-3-(2-(2,2,2-trifluoroethoxy)pyrimidin-5-yl)pyridazin-1(6H)-yl)methyl) isoxazole-3-carboxylate] |
| < 10 | O=c1ccc(-c2cnc(OCC(F)(F)F)nc2)nn1Cc1nnc(-c2ccccn2)s1 [Compound 38, 2-((5-(pyridin-2-yl)-1,3,4-thiadiazol-2-yl)methyl)-6-(2-(2,2,2-trifluoroethoxy)pyrimidin-5-yl)pyridazin-3(2H)-one] |
| < 10 | Cc1c(-c2ccccc2)noc1Cn1nc(-c2cnc(OCC(F)(F)F)nc2)ccc1=O [Compound 39, 2-((4-methyl-3-phenylisoxazol-5-yl)methyl)-6-(2-(2,2,2-trifluoroethoxy)pyrimidin-5-yl)pyridazin-3(2H)-one] |
| < 10 | O=c1ccc(-c2cnc(OCC(F)(F)F)nc2)nn1Cc1nnc(-c2cccnc2)s1 [Compound 40, 2-((5-(pyridin-3-yl)-1,3,4-thiadiazol-2-yl)methyl)-6-(2-(2,2,2-trifluoroethoxy)pyrimidin-5-yl)pyridazin-3(2H)-one] |
| < 10 | Cc1ccc(Cn2nc(-c3cnc(OCC(F)(F)F)nc3)ccc2=O)nn1 [Compound 41, 2-((6-methylpyridazin-3-yl)methyl)-6-(2-(2,2,2-trifluoroethoxy)pyrimidin-5-yl)pyridazin-3(2H)-one] |
| 10 to 100 | O=c1ccc(-c2cnc(OCC(F)(F)F)nc2)nn1Cc1ccnc(O)c1 [Compound 42, 2-((2-hydroxypyridin-4-yl)methyl)-6-(2-(2,2,2-trifluoroethoxy)pyrimidin-5-yl)pyridazin-3(2H)-one] |
| 10 to 100 | O=c1ccc(-c2cnc(OCC(F)(F)F)nc2)nn1Cc1cc(CO)no1 [Compound 43, 2-((3-(hydroxymethyl)isoxazol-5-yl)methyl)-6-(2-(2,2,2-trifluoroethoxy)pyrimidin-5-yl)pyridazin-3(2H)-one] |
| 10 to 100 | O=c1ccc(-c2cnc(OCC(F)(F)F)nc2)nn1Cc1nnc(-c2ccnc(O)c2)s1 [Compound 44, 2-((5-(2-hydroxypyridin-4-yl)-1,3,4-thiadiazol-2-yl)methyl)-6-(2-(2,2,2-trifluoroethoxy)pyrimidin-5-yl)pyridazin-3(2H)-one] |
| 10 to 100 | O=c1ccc(-c2cnc(OCC(F)(F)F)nc2)nn1Cc1nnc(-c2ccc(O)nc2)s1 [Compound 45, 2-((5-(6-hydroxypyridin-3-yl)-1,3,4-thiadiazol-2-yl)methyl)-6-(2-(2,2,2-trifluoroethoxy)pyrimidi-5-yl)pyridazin-3(2H)-one] |
| > 100 | O=c1ccc(-c2cnc(OCC(F)(F)F)nc2)nn1Cc1cccc(O)n1 [Compound 46, 2-((6-hydroxypyridin-2-yl)methyl)-6-(2-(2,2,2-trifluoroethoxy)pyrimidin-5-yl)pyridazin-3(2H)-one] |
| > 100 | O=c1ccc(-c2cnc(OCC(F)(F)F)nc2)nn1Cc1cccnc1O [Compound 47, 2-((2-hydroxypyridin-3-yl)methyl)-6-(2-(2,2,2-trifluoroethoxy)pyrimidin-5-yl)pyridazin-3(2H)-one] |
| > 100 | Cc1noc(Cn2nc(-c3cnc(OCC(F)(F)F)nc3)ccc2=O)c1C [Compound 49, 2-((3,4-dimethylisoxazol-5-yl)methyl)-6-(2-(2,2,2-trifluoroethoxy)pyrimidin-5-yl)pyridazin-3(2H)-one] |
| < 10 | CN(CC(F)(F)F)c1ncc(-c2ccc(=O)n(Cc3cncc(F)c3)n2)cn1 [Compound 50, 2-((5-fluoropyridin-3-yl)methyl)-6-(2-(methyl(2,2,2-trifluoroethyl)amino)pyrimidin-5-yl)pyridazin-3(2H)-one] |
| < 10 | N#Cc1cncc(Cn2nc(-c3cnc(OCC(F)(F)F)nc3)ccc2=O)c1 [Compound 51, 5-((6-oxo-3-(2-(2,2,2-trifluoroethoxy)pyrimidin-5-yl)pyridazin-1(6H)-yl)methyl)nicotinonitrile] |
| < 10 | Cc1ncc(Cn2nc(-c3cnc(OCC(F)(F)F)nc3)ccc2=O)cc1F [Compound 52, 2-((5-fluoro-6-methylpyridin-3-yl)methyl)-6-(2-(2,2,2-trifluoroethoxy)pyrimidin-5-yl)pyridazin-3(2H)-one] |
| < 10 | O=c1ccc(-c2cnc(OCC(F)(F)F)nc2)nn1Cc1cnco1 [Compound 53, 2-(oxazol-5-ylmethyl)-6-(2-(2,2,2,- trifluoroethoxy)pyrimidin-5-yl)pyridazin-3(2H)-one] |

The remaining lines, values behind:

| SMILES | IC50 [µM] |
| --- | --- |
| O=c1ccc(-c2cnc(OCC(F)(F)F)nc2)nn1Cc1cncc(Cl)c1 [Compound 1, 2-((5-chloropyridin-3-yl)methyl)-6-(2-(2,2,2-trifluoroethoxy)pyrimidin-5-yl)pyridazine-3(2H)-one] | < 10 |
| O=c1ccc(-c2ccc(OC(F)F)nc2)nn1Cc1cncc(Cl)c1 [Compound 2] | < 10 |
| O=c1ccc(-c2cnc(OCC(F)(F)F)nc2)nn1Cc1cncc(F)c1 [Compound 6, 2-((5-fluoropyridin-3-yl)methyl)-6-(2-(2,2,2-trifluoroethoxy)pyrimidin-5-yl)pyridazine-3(2H)-one] | < 10 |
| O=c1ccc(-c2ccc(OC(F)F)nc2)nn1Cc1cncc(F)c1 [Compound 9] | < 10 |
| O=c1ccc(-c2ccc(OC(F)F)nc2)nn1Cc1cccnc1 [Compound 10] | 10 to 100 |
| O=c1ccc(-c2ccc(OC(F)F)nc2)nn1Cc1nnc(-c2ccc(F)cc2)s1 [Compound 17] | < 10 |
| O=c1ccc(-c2ccc(OC(F)F)nc2)nn1Cc1nnc(-c2ccccc2)s1 [Compound 22] | < 10 |
| O=c1ccc(-c2ccc(OC(F)F)nc2)nn1Cc1cn[nH]c1-c1ccccc1 [Compound 23, 6-(6-(difluoromethoxy)pyridin-3-yl)-2-((5-phenyl-1H-pyrazol-4-yl)methyl)pyridazin-3(2H)-one] | > 100 |
| O=c1ccc(-c2ccc(OC(F)F)nc2)nn1Cc1ocnc1-c1ccccc1 [Compound 24, 6-(6-(difluoromethoxy)pyridin-3-yl)-2-((4-phenyloxazol-5-yl)methyl)pyridazin-3(2H)-one] | > 100 |
| O=c1ccc(-c2ccc(OC(F)F)nc2)nn1Cc1[nH]ncc1-c1ccccc1 [Compound 25, 6-(6-(difluoromethoxy)pyridin-3-yl)-2-((4-phenyl-1H-pyrazol-5-yl)methyl) pyridazin-3(2H)-one] | > 100 |
| O=c1ccc(-c2cnc(OCC(F)(F)F)nc2)nn1Cc1cc(C(F)F)no1 [Compound 26, 2-((3-(difluoromethyl)isoxazol-5-yl)methyl)-6-(2-(2,2,2-trifluoroethoxy)pyrimidin-5-yl)pyridazin-3(2H)-one] | < 10 |
| O=c1ccc(-c2cnc(OCC(F)(F)F)nc2)nn1Cc1cc(-c2ccccc2)no1 [Compound 27, 2-((3-phenylisoxazol-5-yl)methyl)-6-(2-(2,2,2-trifluoroethoxy)pyrimidin-5-yl)pyridazin-3(2H)-one] | < 10 |
| CC1CCCN1c1ncc(-c2ccc(=O)n(Cc3cncc(F)c3)n2)cn1 (stereo not drawn) [Compound 28, 2-((5-fluoropyridin-3-yl)methyl)-6-(2-(2-methylpyrrolidin-l-yl)pyrimidin-5-yl)pyridazin-3(2H)-one] | < 10 |
| O=c1ccc(-c2cnc(OCC(F)(F)F)nc2)nn1Cc1cc(-c2ccccn2)no1 [Compound 30, 2-((3-(pyridin-2-yl)isoxazol-5-yl)methyl)-6-(2-(2,2,2-trifluoroethoxy)pyrimidin-5-yl)pyridazin-3(2H)-one] | < 10 |
| O=c1ccc(-c2cnc(OCC(F)(F)F)nc2)nn1Cc1cc(C2CC2)no1 [Compound 31, 2-((3-cyclopropylisoxazol-5-yl)methyl)-6-(2-(2,2,2-trifluoroethoxy)pyrimidin-5-yl)pyridazin-3(2H)-one] | < 10 |

— patent publication US11873290B2, “Pyridazinone compounds and uses thereof” (Edgewise Therapeutics, Inc., priority 2018, dated 2024)
